{"source": "patent US20180318386A1", "about": "“PEPTIDES AND METHODS OF TREATING ENDOMETRIOSIS USING THE SAME” (BIOINCEPT, LLC, priority 2014, published 2018)", "key": {"CD4+/CD25+/FoxP3+ cells": {"test_system": "CD4+/CD25+/FoxP3+ cells", "test": "FITC-PIF binding to regulatory T-cells, two- and three-color flow cytometry", "assay_type": "cell-based, human", "details": "0-100 uM FITC-labelled peptide"}, "Lymphocytes": {"test_system": "Lymphocytes", "test": "FITC-PIF binding to mare immune cells, flow cytometry: lymphocytes", "assay_type": "cell-based", "excerpt": "(§1) Method: whole blood was collected from jugular vein of pregnant (n=4) and non-pregnant (n=8) mares into lithium heparin vacutainers. Whole blood was layered over histopaque (Sigma) density gradient and red cells were allowed to settle through the gradient, leaving a leukocyte-rich plasma layer above. Cells were washed twice in sterile PBS and any remaining RBCs lysed with 0.16 M ammonium chloride solution. […] Cell types were separated based upon their scatter characteristics. […] FIG. 20 and Table 20 show mean+/−SEM in both pregnant and non-pregnant mares, and depicts binding characteristics showing significant differences between FITC-PIF and control, P<0.001."}, "Granulocytes": {"test_system": "Granulocytes", "test": "FITC-PIF binding to mare immune cells, flow cytometry: granulocytes", "assay_type": "cell-based", "excerpt": "as §1"}, "Monocytes": {"test_system": "Monocytes", "test": "FITC-PIF binding to mare immune cells, flow cytometry: monocytes", "assay_type": "cell-based", "excerpt": "as §1"}, "[1]": {"details": "Non-pregnant mares, 1 ug/ml FITC-labelled peptide (n = 8)"}, "[2]": {"details": "Non-pregnant mares, 5 ug/ml FITC-labelled peptide (n = 8)"}, "[3]": {"details": "Non-pregnant mares, 10 ug/ml FITC-labelled peptide (n = 7)"}, "[4]": {"details": "Pregnant mares, 1 ug/ml FITC-labelled peptide (n = 4)"}, "[5]": {"details": "Pregnant mares, 5 ug/ml FITC-labelled peptide (n = 4)"}, "[6]": {"details": "Pregnant mares, 10 ug/ml FITC-labelled peptide (n = 4)"}}}
{"sequence": "GRVDPSNKSMPKDIA (scrPIF-1 (15)) [PIFscr, control]", "values": [{"measurement": "binding to CD4+/CD25+/FoxP3+ cells", "setting": "CD4+/CD25+/FoxP3+ cells", "value": "minimal binding"}, {"measurement": "binding to Lymphocytes, Mean", "setting": "Lymphocytes; [1]", "value": 0.27}, {"measurement": "binding to Lymphocytes, Mean", "setting": "Lymphocytes; [2]", "value": 1.08}, {"measurement": "binding to Lymphocytes, Mean", "setting": "Lymphocytes; [3]", "value": 2.04}, {"measurement": "binding to Lymphocytes, Mean", "setting": "Lymphocytes; [4]", "value": 0.12}, {"measurement": "binding to Lymphocytes, Mean", "setting": "Lymphocytes; [5]", "value": 0.78}, {"measurement": "binding to Lymphocytes, Mean", "setting": "Lymphocytes; [6]", "value": 2.84}, {"measurement": "binding to Granulocytes, Mean", "setting": "Granulocytes; [1]", "value": 0.26}, {"measurement": "binding to Granulocytes, Mean", "setting": "Granulocytes; [2]", "value": 1.78}, {"measurement": "binding to Granulocytes, Mean", "setting": "Granulocytes; [3]", "value": 3.89}, {"measurement": "binding to Granulocytes, Mean", "setting": "Granulocytes; [4]", "value": 0.09}, {"measurement": "binding to Granulocytes, Mean", "setting": "Granulocytes; [5]", "value": 0.93}, {"measurement": "binding to Granulocytes, Mean", "setting": "Granulocytes; [6]", "value": 4.51}, {"measurement": "binding to Monocytes, Mean", "setting": "Monocytes; [1]", "value": 1.10}, {"measurement": "binding to Monocytes, Mean", "setting": "Monocytes; [2]", "value": 5.20}, {"measurement": "binding to Monocytes, Mean", "setting": "Monocytes; [3]", "value": 12.39}, {"measurement": "binding to Monocytes, Mean", "setting": "Monocytes; [4]", "value": 0.78}, {"measurement": "binding to Monocytes, Mean", "setting": "Monocytes; [5]", "value": 6.36}, {"measurement": "binding to Monocytes, Mean", "setting": "Monocytes; [6]", "value": 31.07}]}
